According to patent US8697876B2, “Compositions and methods of synthesis of pyridinolypiperidine 5-HT1F agonists” (Colucid Pharmaceuticals, Inc., priority 2010, dated 2014):

Assay: Solid-state properties of Form A (hygroscopicity)
Type: physicochemical
Settings: crystalline anhydrate

## CN1CCC(C(=O)c2cccc(NC(=O)c3c(F)cc(F)cc3F)n2)CC1.O=C(O)CCC(=O)O [Form A, 2,4,6-Trifluoro-N-(6-(1-methylpiperidine-4-carbonyl)pyridine-2-yl)benzamide Hemisuccinate]
  hygroscopicity: non-hygroscopic
